Test system: C. elegans overexpressing human Aβ
Experiment: Aβ accumulation in C. elegans (thioflavin S staining, western blot)
Type: in vivo
Details: CL2006 worms overexpressing human Aβ, vs DMSO controls
Experimental: To determine the FFAR2 signal activating property of selected compounds, SK-N-SH cells were treated with 10 μM of shortlisted compounds for 30 min at 37° C. and harvested for total protein extraction. Cells were harvested after 30 min of incubation because ERK1/2 phosphorylation upon FFAR2 activation is a quick event (Jiao et al., 2002; Bhattacharjee et al., 2010). Total protein from the cells was extracted using a lysis buffer [consisting of 10 mmol/L Tris (pH 7.6), 150 mmol/L NaCl, 10 mmol/L Sodium orthovanadate, 10 mmol/L Sodium Pyrophosphate, 100 mmol/L Sodium fluoride, 1 mmol/L EDTA, 1 mmol/L EGTA, 1% Triton X-100, 0.5% NP-40 and a cocktail of protease inhibitors (Roche); Yadav et al., 2011, 2017; Ahmadi et al., 2019, 2020a]. After sonication, cell extracts were centrifuged at 8,000×g for 10 min at 4° C., and the supernatant was separated in a fresh tube. The total protein concentration of the supernatant was measured using a BCA protein assay kit. […] Band densities were also quantified using NIH ImageJ software. β-actin was used as an internal control.
Then, the worm bodies were permeabilized in 1% Triton X-100, 125 mM Tris (pH 7.4), and 5% fresh β-mercaptoethanol. […] A total of 20 worms were counted from each group.

CC12CCC(C1)C(C)(C)C2O (stereo not shown) [Fenchol]
Aβ accumulation: significantly reduced

From patent US12447135B2 (University of South Florida, priority 2021, dated 2025)
